Results from US20090124631A1, “Combination Therapy” (priority 2007, published 2009).
Entries after “also recorded” stand apart in the source; their conditions may differ.

How the values were obtained:
[1] = tested on: bFGF transcription in human prostate cancer Du145 cells; assay: bFGF transcription in Du145 cells in vitro; assay type: cell-based; conditions: 3 μM, 24 hour treatment
Description: Human prostate cancer Du145 cells were exposed to Cpd A or SAHA (3 microM) for 24 hours. Total RNA was collected by Isogen (Nippongene, Tokyo, Japan) and reverse-transcribed to cDNA by ExScript® RT reagent Kit (TAKARA, Kyoto, Japan). The expression level of bFGF mRNA was detected by ABI7700 analyzer using probe/primer pre-mixture reagent (ABI, Cat# Hs00266645_m1, CA, USA) and TaqMan® Universal PCR Master Mix (ABI, Cat# 430-4437) as described in the ABI's protocol. The expression level of VEGF mRNA was detected in a similar manner using the appropriate probe/primer reagents.

[2] = tested on: MT3 transcription in human T-cell leukemia Jurkat-T cells; assay: MT3 transcription in Jurkat-T cells, real time RT-PCR; assay type: cell-based; conditions: 24 hours
Description: Total RNAs were extracted from cell pellets or from tumors using QiaShredder and RNeasy mini kit (Qiagen). 1 μg RNA was converted into cDNA using Expand RT enzyme (Roche) and Oligo(dT) primers (Invitrogen) in a 20 μl reaction volume. For quantitative real-time PCR, the primers used for MT3 were [NT] and [NT] and those for β-actin were [NT] and [NT]. Reactions with either pair of primers included an annealing temperature of 63.4° C. All real-time PCR reactions were performed on the MasterCycler ep Realplex (Eppendorf) using FastStart SYBRGreen Master (Roche).

[3] = tested on: human H460 non-small cell lung tumor xenograft; assay: H460 xenograft, combination with taxotere; assay type: in vivo, mouse; conditions: H460, oral Compound A 3 times weekly with taxotere i.v. single dose
Description: Antitumor studies were done using human H460 non-small cell lung tumor xenograft model in male BALBc/A nude mice (from Japan Crea Inc., Japan). Male nude mice were used at age 8-10 weeks. Human carcinoma cells were injected subcutaneously in the animal flank and allowed to form solid tumors. Tumor fragments (about 2 mm^2 fragments) were then removed and implanted subcutaneously to the right flank of other animals. […] Tumor volumes and gross body weight of animals were monitored twice weekly for up to 3 weeks. Each experimental group contained 6 animals.

[4] = tested on: MT3 transcription in implanted H460 tumors; assay: MT3 transcription in implanted H460 tumors in vivo; set-up: species or system mouse; conditions: H460 tumors in mice, single dose 100 mg/kg po
Description: 6 hours or 24 hours post drug administration, mice were sacrificed and tumor excised and put in RNAlater (Ambion, Austin, Tex.) and stored at −70 C until RNAs were extracted using QiaShredder and RNeasy mini kit (Qiagen). For real time RT-PCR to determine MT3 transcription level, 1 μg RNA was converted into cDNA using Expand RT enzyme (Roche) and Oligo(dT) primers (Invitrogen) in a 20 μl reaction volume. For quantitative real-time PCR, the primers used for MT3 were 5′CCCTGCGGAGTGTGAGAAGT 3′ and 5′TGCTTCTGCCTCAGCTGCCT 3′ and those for β-actin were 5′CTCTTCCAGCCTTCCTTCCT 3′ and 5′AGCACTGTGTTGGCGTACAG 3′. Reactions with either pair of primers included an annealing temperature of 63.4° C. All real-time PCR reactions were performed on the MasterCycler ep Realplex (Eppendorf) using FastStart SYBRGreen Master (Roche).

[5] = tested on: histone H3 acetylation in human bladder carcinoma T24 cells; assay: Cell-based ELISA for H3 acetylation
Description: Bladder carcinoma T24 cells were seeded in black plates with clear bottoms (Costar #3603) at 1×10^4 cells per well in a volume of 100 μl per well, and were allowed to settle for one day at 37° C. in a CO2 incubator. The cells were treated for 16 h with various concentrations of HDAC inhibitors. 3 h before the end of the treatment, Alamar Blue (BioSource) was added to monitor cell viability according to the manufacturer's instructions. At the end of the treatment time, Alamar Blue OD (at 570 nm and 600 nm) was recorded, then the cells were carefully washed in PBS, fixed in pre-chilled methanol for 10 min at −20° C., washed again twice in PBS, and blocked in PBS containing 0.1% Triton X-100 and 1% BSA for a minimum of 30 min. For H3 acetylation, rabbit-anti-acetyl-H3 (Upstate #06-599) was used as primary antibody at a dilution of 1:1000 for 45 min; the secondary antibody was HRP-coupled goat-anti-rabbit (Sigma #A-0545), used at 1:8000 for 45 min. For tubulin acetylation, the primary antibody was mouse anti-acetyl-tubulin (Sigma #T-6793, 1:2000, 45 min) while the secondary was HRP-coupled goat-anti-mouse antibody (Sigma #A-2304, 1:8000, 45 min). All antibodies were diluted in blocking buffer, and the cells were washed in blocking buffer following each antibody incubation. […] The fluorescent signal for acetylation was normalized by dividing with the viability data obtained from Alamar Blue. EC50 was defined as the concentration of compound which gave a signal half-way between the basal (untreated) level and the maximum level generated by high doses of the HDAC pan-inhibitor NVP-LAQ-824.

[6] = tested on: TSP-1 expression in cancer cells (Du145, H460, A549); assay: TSP-1 transcription in cancer cells in vitro; assay type: cell-based, human; conditions: over time, 3 microM, 24 hours
Description: Cells were exposed by Cpd A or SAHA (3 microM) for 24 hours. Total RNA was collected by Isogen (Nippongene, Tokyo, Japan) and reverse-transcribed to cDNA by ExScript® RT reagent Kit (TAKARA, Kyoto, Japan). The expression level of TSP-1 mRNA was detected by ABI7700 analyzer using a probe/primer pre-mixture reagent (ABI, Cat#, CA, USA) and TaqMan® Universal PCR Master Mix (ABI, Cat# 430-4437) as described in the ABI's protocol.

[7] = tested on: human AZ521 gastric tumor xenograft; assay: AZ521 gastric tumor xenograft, combination with taxol; assay type: in vivo, mouse; conditions: AZ521, Compound D 40 mg/kg oral daily 14 days with taxol 20 mg/kg i.v.
Description: Antitumor studies were done using human AZ521 gastric tumor xenograft model in male BALBc/A nude mice (from Japan Crea Inc., Japan). Male nude mice were used at age 8-10 weeks. Human carcinoma cells were injected subcutaneously in the animal flank and allowed to form solid tumors. Tumor fragments (about 2 mm^2 fragments) were then removed and implanted subcutaneously to the right flank of other animals. When the tumor sizes reached about 100 to 200 mm^3, recipient animals were treated Compound D (40 mg/kg, suspended with 0.5% HPMC) by oral administration alone, or taxol by i.v. injection (20 mg/kg), or combination of taxol with oral administration of Compound D. Typically, taxol was administered once per week by iv injection on the first day as a single administration, while Compound D was administered once daily for 14 days. Tumor volumes and gross body weight of animals were monitored twice weekly for up to 2 weeks. Each experimental group contained 6 animals.

Compound | bFGF transcription [1] | MT3 transcription [2] | antitumor activity of taxotere [3] | MT3 transcription in tumors [4] | histone H3 acetylation [5] | TSP-1 expression [6] | antitumor activity of taxol [7]
Nc1ccccc1NC(=O)c1ccc(CNc2nccc(-c3cccnc3)n2)cc1 [Compound A] | more dramatic than by SAHA; also recorded: suppression | dose-dependent induction | Potentiation | induction | dose-dependent induction | induction | –
Nc1ccc(-c2ccccc2)cc1NC(=O)c1ccc(N2CC[C@H](N)C2)cc1 [Compound D] | – | – | – | – | – | – | Potentiation
